One block for each compound: values may come before it. Activity calls are given as the source filed them. No cut-off for these calls is given here.
How the values were obtained:
Adenosine receptor A1 [1] = biological target: T1, Adenosine receptor A1 (Homo sapiens, UniProt P30542); test: Displacement of [3H]DPCPX from human A1 adenosine receptor expressed in Flp-In-CHO cells by radioligand competitive binding assay; type: cell-based
T1 sequence (P30542 whole entry): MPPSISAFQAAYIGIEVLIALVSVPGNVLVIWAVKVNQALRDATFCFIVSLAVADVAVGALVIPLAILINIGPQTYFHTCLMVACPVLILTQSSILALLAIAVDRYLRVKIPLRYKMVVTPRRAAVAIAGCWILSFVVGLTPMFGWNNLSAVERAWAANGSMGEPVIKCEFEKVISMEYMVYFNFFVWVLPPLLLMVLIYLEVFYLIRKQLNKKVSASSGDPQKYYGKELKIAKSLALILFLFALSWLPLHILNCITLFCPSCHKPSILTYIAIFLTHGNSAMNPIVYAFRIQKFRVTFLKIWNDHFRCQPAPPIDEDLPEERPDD

Adenosine receptor A1 [2] = biological target: T1, Adenosine receptor A1; test: Binding affinity to NLuc human A1 adenosine receptor expressed in HEK293-A cells in presence of 1 uM SLV320 by NanoBRET binding assay; type: cell-based
[3] = biological target: T2, Adenosine receptor A1 (Homo sapiens) (UniProt P30542); test: Binding affinity to NLuc human A1 adenosine receptor expressed in HEK293-A cells assessed as maximal binding capacity in presence of 1 uM SLV320 by NanoBRET binding assay; type: cell-based; settings: filed as antagonist
T2 sequence (whole entry): T1 sequence (P30542 whole entry)

Adenosine receptor A2a [4] = biological target: T3, Adenosine receptor A2a (Homo sapiens, UniProt P29274); test: Binding affinity to NLuc human A2A adenosine receptor expressed in HEK293-A cells in presence of 1 uM ZM241385 by NanoBRET binding assay; type: cell-based
Adenosine receptor A2a [5] = biological target: T3, Adenosine receptor A2a; test: Binding affinity to NLuc human A2A adenosine receptor expressed in HEK293-A cells assessed as maximal binding capacity in presence of 1 uM ZM241385 by NanoBRET binding assay; type: cell-based; settings: filed as antagonist
Adenosine receptor A2b = biological target: T4, Adenosine receptor A2b (Homo sapiens, UniProt P29275); test: Binding affinity to NLuc human A2B adenosine receptor expressed in HEK293-A cells in presence of 1 uM PSB603 by NanoBRET binding assay; type: cell-based
T4 sequence (P29275 whole entry): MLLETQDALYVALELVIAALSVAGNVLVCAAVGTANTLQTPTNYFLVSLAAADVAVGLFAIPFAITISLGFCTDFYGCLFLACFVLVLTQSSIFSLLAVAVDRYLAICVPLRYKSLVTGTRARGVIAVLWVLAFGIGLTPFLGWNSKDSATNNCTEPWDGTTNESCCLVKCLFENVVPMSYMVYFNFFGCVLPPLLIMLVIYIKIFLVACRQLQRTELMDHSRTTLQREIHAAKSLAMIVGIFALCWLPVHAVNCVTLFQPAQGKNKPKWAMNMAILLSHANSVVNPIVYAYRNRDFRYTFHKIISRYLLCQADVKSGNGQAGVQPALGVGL

[6] = biological target: T5, Adenosine receptor A2b (Homo sapiens) (UniProt P29275); test: Binding affinity to NLuc human A2B adenosine receptor expressed in HEK293-A cells assessed as maximal binding capacity in presence of 1 uM PSB603 by NanoBRET binding assay; type: cell-based; settings: filed as antagonist
T5 sequence (whole entry): T4 sequence (P29275 whole entry)

Adenosine receptor A3 [7] = biological target: T6, Adenosine receptor A3 (Homo sapiens, UniProt P0DMS8); test: Binding affinity to NLuc human A3 adenosine receptor expressed in HEK293-A cells in presence of 1 uM MRS1220 by NanoBRET binding assay; type: cell-based
T6 sequence (P0DMS8 whole entry): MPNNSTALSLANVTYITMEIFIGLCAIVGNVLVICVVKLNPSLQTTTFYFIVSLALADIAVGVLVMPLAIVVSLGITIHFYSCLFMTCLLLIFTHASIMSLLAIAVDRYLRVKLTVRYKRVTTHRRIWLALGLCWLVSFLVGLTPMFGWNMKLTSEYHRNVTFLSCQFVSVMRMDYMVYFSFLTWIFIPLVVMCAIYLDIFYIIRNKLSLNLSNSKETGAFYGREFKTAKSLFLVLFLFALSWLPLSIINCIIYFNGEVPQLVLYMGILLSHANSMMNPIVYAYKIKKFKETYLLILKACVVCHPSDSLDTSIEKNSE

[8] = biological target: T7, Adenosine receptor A3 (Homo sapiens) (UniProt P0DMS8); test: Binding affinity to NLuc human A3 adenosine receptor expressed in HEK293-A cells assessed as maximal binding capacity in presence of 1 uM MRS1220 by NanoBRET binding assay; type: cell-based; settings: filed as antagonist
T7 sequence (whole entry): T6 sequence (P0DMS8 whole entry)

[9] = biological target: T2, Adenosine receptor A1 (Homo sapiens); test: Antagonist activity at human A1 adenosine receptor expressed in Flp-In-CHO cells assessed as reduction in NECA-mediated inhibition of forskolin stimulated cAMP accumulation by cAMP assay; type: functional, cell-based; settings: filed as antagonist
[10] = biological target: T2, Adenosine receptor A1 (Homo sapiens); test: Binding affinity to NanoLuc-human A1 adenosine receptor expressed in HEK293-A cells assessed as binding constant (kon) by NanoBRET competitive binding assay; type: cell-based; settings: filed as antagonist
[11] = biological target: T2, Adenosine receptor A1 (Homo sapiens); test: Binding affinity to NanoLuc-human A1 adenosine receptor expressed in HEK293-A cells assessed as binding constant (koff) by NanoBRET competitive binding assay; type: cell-based; settings: filed as antagonist
Adenosine receptor A1 [12] = biological target: T1, Adenosine receptor A1; test: Binding affinity to NanoLuc-human A1 adenosine receptor expressed in HEK293-A cells assessed as kinetic dissociation constant by NanoBRET competitive binding assay; type: cell-based
[13] = biological target: T2, Adenosine receptor A1 (Homo sapiens); test: Binding affinity to SNAP-tagged-human A1 adenosine receptor expressed in HEK293 cells at 5 nM after 30 mins in presence of SLV320 by confocal microscopy method; type: cell-based
Adenosine receptor A3 [14] = biological target: T6, Adenosine receptor A3; test: Agonist activity at A3 adenosine receptor (unknown origin); type: functional
Adenosine receptor A1 [15] = biological target: T1, Adenosine receptor A1; test: biochemical
Description: Displacement of [3H]DPCPX from human A1 adenosine receptor expressed in CHO-K1 cells by radioligand binding assay

[16] = biological target: T2, Adenosine receptor A1 (Homo sapiens); test: Binding affinity to SNAP-tagged-human A1 adenosine receptor expressed in HEK293 cells at 50 nM after 30 mins in presence of SLV320 by confocal microscopy method; type: cell-based
Adenosine receptor A1 [17] = biological target: T1, Adenosine receptor A1; test: Binding affinity to NanoLuc human A1 adenosine receptor expressed in HEK293-A cells in prescence of SLV320 by NanoBRET competitive binding assay; type: cell-based
Adenosine receptor A1 [18] = biological target: T1, Adenosine receptor A1; test: Binding affinity to NanoLuc human A1 adenosine receptor expressed in HEK293-A cells in prescence of DPCPX by NanoBRET competitive binding assay; type: cell-based
Adenosine receptor A1 [19] = biological target: T1, Adenosine receptor A1; test: Binding affinity to NanoLuc human A1 adenosine receptor expressed in HEK293-A cells in prescence of NECA by NanoBRET competitive binding assay; type: cell-based
[20] = biological target: T2, Adenosine receptor A1 (Homo sapiens); test: Binding affinity to SNAP-tagged-human A1 adenosine receptor expressed in HEK293 cells assessed as red fluorescent spot in plasma membrane pre-incubated with 10 uM SLV320 by microscopy based TIRF assay; type: cell membranes

T3 sequence (P29274 whole entry): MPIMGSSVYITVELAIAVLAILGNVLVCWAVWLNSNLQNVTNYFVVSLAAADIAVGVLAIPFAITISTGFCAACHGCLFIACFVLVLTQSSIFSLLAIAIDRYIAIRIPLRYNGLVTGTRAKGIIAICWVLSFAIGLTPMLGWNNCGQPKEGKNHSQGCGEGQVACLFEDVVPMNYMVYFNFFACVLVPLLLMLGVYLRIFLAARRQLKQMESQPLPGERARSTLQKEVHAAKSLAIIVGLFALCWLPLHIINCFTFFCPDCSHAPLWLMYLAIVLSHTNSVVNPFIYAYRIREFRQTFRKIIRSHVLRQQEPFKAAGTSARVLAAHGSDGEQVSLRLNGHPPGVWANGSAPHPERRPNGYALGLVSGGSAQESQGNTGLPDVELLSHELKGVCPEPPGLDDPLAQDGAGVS

Compound: CCCn1c(=O)c2[nH]c(C34CCC(C(=O)NCCNC(=O)CCNC(=O)CCNC(=O)CCCCCNC(=O)COc5ccc(/C=C/C6=[N+]7C(=Cc8ccc(-c9cccs9)n8[B-]7(F)F)C=C6)cc5)(CC3)CC4)nc2n(CCC)c1=O
Ki (Adenosine receptor A1 [1]): 0.288 nM
Kd (Adenosine receptor A1 [2]): 1.17 nM
Bmax [3]: 0.018
Kd (Adenosine receptor A2a [4]): 28.2 nM
Bmax (Adenosine receptor A2a [5]): 0.035
Kd (Adenosine receptor A2b): 7.76 nM
Bmax [6]: 0.016
Kd (Adenosine receptor A3 [7]): 135 nM
Bmax [8]: 0.012
pKb [9]: 9.75
K [10]: 17.9 10^6/M/min
K [11]: 0.054 min⁻¹
Kd (Adenosine receptor A1 [12]): 3.09 nM
Activity [13]: inactive

Compound: CCCn1c(=O)c2[nH]c(C34CC5CC(CC(C5)C3)C4)nc2n(CCCNC(=O)c2ccc(C(=O)NCCNC(=O)CCCCC[N+]3=C(/C=C/C=C/C=C4/N(C)c5ccc(S(=O)(=O)O)cc5C4(C)C)C(C)(C)c4cc(S(=O)(=O)[O-])ccc43)cc2)c1=O
Ki (Adenosine receptor A1 [1]): > 10000 nM

Compound: CCNC(=O)[C@H]1O[C@@H](n2cnc3c(NCCCCNC(=O)CNC(=O)[C@@H](C)NC(=O)[C@@H](C)NC(=O)CCCCCNC(=O)COc4ccc(/C=C/C5=[N+]6C(=Cc7ccc(-c8cccs8)n7[B-]6(F)F)C=C5)cc4)ncnc32)[C@H](O)[C@@H]1O
EC50 (Adenosine receptor A3 [14]): 3.31 nM

Compound: CCCn1c(=O)c2[nH]c(C34CCC(CCC(=O)NCCNC(=O)CCNC(=O)CCNC(=O)OC(C)(C)C)(CC3)CC4)nc2n(CCC)c1=O
Ki (Adenosine receptor A1 [1]): 7.76 nM

Compound: CCCn1c(=O)c2[nH]c(C34CCC(C(=O)NCCNC(=O)CCNC(=O)CCNC(=O)CCCCC[N+]5=C(/C=C/C=C/C=C6/N(C)c7ccc(S(=O)(=O)O)cc7C6(C)C)C(C)(C)c6cc(S(=O)(=O)[O-])ccc65)(CC3)CC4)nc2n(CCC)c1=O
Activity [16]: inactive
Ki (Adenosine receptor A1 [1]): 200 nM
Kd (Adenosine receptor A1 [2]): 44.7 nM
Bmax [3]: 0.03
Kd (Adenosine receptor A2a [4]): > 1000 nM
Kd (Adenosine receptor A2b): > 1000 nM
Kd (Adenosine receptor A3 [7]): > 1000 nM
pKb [9]: 7.12
K [10]: 0.86 10^6/M/min
K [11]: 0.117 min⁻¹
Kd (Adenosine receptor A1 [12]): 138 nM
Ki (Adenosine receptor A1 [17]): 0.708 nM
Ki (Adenosine receptor A1 [18]): 7.41 nM
Ki (Adenosine receptor A1 [19]): 398 nM
Activity [20]: inactive

More lines, now with the values ahead:

Ki (Adenosine receptor A1 [1]): 14.8 nM
Compound: CCCn1c(=O)c2[nH]c(C34CCC(CCC(=O)NCCNC(=O)COCCNC(=O)OC(C)(C)C)(CC3)CC4)nc2n(CCC)c1=O

Ki (Adenosine receptor A1 [1]): 11.2 nM
Compound: CCCn1c(=O)c2[nH]c(C34CCC(C(=O)NCCC(=O)NCCNC(=O)COCCNC(=O)OC(C)(C)C)(CC3)CC4)nc2n(CCC)c1=O

Ki (Adenosine receptor A1 [1]): 1.7 nM
Ki (Adenosine receptor A1 [15]): 1 nM
Compound: O[C@H]1CC[C@H](Nc2nc(-c3ccccc3)nc3[nH]ccc23)CC1

Ki (Adenosine receptor A1 [1]): 851 nM
Compound: CCCn1c(=O)c2[nH]c(C34CCC(C(=O)NCCNC(=O)CCCCC[N+]5=C(/C=C/C=C/C=C6/N(C)c7ccc(S(=O)(=O)O)cc7C6(C)C)C(C)(C)c6cc(S(=O)(=O)[O-])ccc65)(CC3)CC4)nc2n(CCC)c1=O

Ki (Adenosine receptor A1 [1]): 5.89 nM
Compound: CCCn1c(=O)c2[nH]c(C34CC5CC(CC(C5)C3)C4)nc2n(CCCNC(=O)c2ccc(C(=O)NCCNC(=O)CCCCCNC(=O)COc3ccc(/C=C/C4=[N+]5C(=Cc6ccc(-c7cccs7)n6[B-]5(F)F)C=C4)cc3)cc2)c1=O

— ChEMBL document CHEMBL5042471, “Development and Application of Subtype-Selective Fluorescent Antagonists for the Study of the Human Adenosine A1 Receptor in Living Cells” (J Med Chem, 2021)
